What was measured:
[1] = target: T1, AiWssI^ΔN (Achromobacter insuavis, UniProt A0A6J5I893); assay: pNP-Ac cleavage in the presence of oligosaccharide acceptors; type: biochemical; conditions: 1 mM oligosaccharide, 6 mM pNP-Ac, 2 μM enzyme; for Increase in AiWssI^ΔN activity versus reaction without celloacceptors: 30 min, 23 °C; for Specific activity of AiWssI^ΔN with acceptor relative to no acceptor control: t test
Method: Acetyltransfer by WssI was performed under the same esterase assay protocol outlined previously, but with the addition of cellulose or chitin oligosaccharides (1 mM) as the acceptor in the presence of either pNP-Ac (6 mM) or acetyl-CoA (4 mM) as the acetyl donor ([…]). Assessment of acetyltransfer was first monitored indirectly (absorbance at 405 nm wavelength) by observing differences in pNP liberation rates in the presence and absence of the polysaccharide acceptors. Later to confirm the acetylated products, reactions performed with pNP-Ac and acceptor polysaccharides were subjected to solid-phase extraction of the carbohydrate reaction products followed by detection with MS (as outlined later). Reactions utilizing acetyl-CoA as the donor were subjected to LC–MS analyses. All model fitting and statistical analyses were performed using GraphPad Prism, version 8.4.3.

[2] = target: T1, AiWssI^ΔN; assay: Follow-up standard MU-Ac esterase assay (dose-response); type: biochemical; conditions: for IC50: MU-Ac (0.5 mM) as esterase substrate, read-out: Second MU-Ac IC50; for Ki: MU-Ac as esterase substrate, Cheng-Prusoff, competitive inhibition, read-out: Second MU-Ac Ki
Method: (§1) The fluorescence substrate, MU-Ac, was also tested as a substrate of WssI^ΔN for its amenability to the planned high-throughput analyses (see later). Reaction setups were exactly the same as that for pNP-Ac, with the exceptions of the assay buffer (50 mM sodium phosphate, 150 mM NaCl, 1 mM DTT, pH 7), MU-Ac as the acetyl donor (final concentration of 0.5 mM along with 5% [v/v] dimethyl sulfoxide, as this was the solvent for MU-Ac), and the assay was performed in fluorescence compatible microplates (Grenier BioOne) and monitored with excitation and emission wavelengths of 365 and 450 nm, respectively for 60 min.
(§2) All inhibitor compounds for confirmatory assays were purchased from Enamine Ltd, with the exception of compound 1 (Santa Cruz Biotechnology, Inc), Compounds 2 and 7 (Molport via Maybridge Ltd and Vitas M Chemical Ltd, respectively) and compound 6 (Mcule, Inc). The dose–response curves were generated using either CDD Vault Analysis Software (Collaborative Drug Discovery, Inc) or GraphPad Prism, version 8.4.3. Inhibition constants (Ki) were calculated using the Cheng–Prusoff equation for competitive inhibition that is calculated using the KM of the uninhibited enzyme, the substrate concentration (S) at which the IC50 values were calculated, and the IC50 value of the inhibitor ([92]): Ki=IC50/(S/KM+1)

[3] = target: T1, AiWssI^ΔN; assay: HTS MU-Ac fluorescence esterase dose-response assay; type: biochemical; conditions: MU-Ac as esterase substrate
Method: Large-scale HTS was conducted at the SPARC BioCentre Drug Discovery (Hospital for Sick Children, Toronto, Canada) with a subset of the Chembridge DIVERset library collection (as well as 135 manually selected compounds based on success against other SGNH enzymes) in a 384-well format. The assay was performed in singlet during the primary screen of the entire compound list and in triplicate for a follow-up confirmatory screen. Reaction setups for both screens were conducted with 50 mM sodium phosphate buffer (pH 6.5), 3 μM AiWssI^ΔN and 0.5 mM MU-Ac (final concentration of 5% [v/v] dimethyl sulfoxide) using a Thermo MultiDrop Combi Reagent Dispenser. The reaction was initiated by the addition of 20 μM of the test compounds using an Echo 550 acoustic dispenser (Labcyte). Fluorescence was monitored with a SynergyNeo microplate reader (BioTek) using excitation and emission wavelengths of 365 and 450 nm, respectively, for approximately 45 min alongside appropriate negative and positive controls. […] The hits remaining after the primary and confirmatory screening were examined further to identify possible PAINS, which could result in false-positive results ([91]). Further refinement of the lead candidates was also conducted by assessing the fluorescence quenching potential of lead compound hits by assaying the quenching potential of different compound concentrations (10.1 μM and/or 50.5 μM) against the fluorescence of 4-methylumbeliferone (247 μM) to reveal any potential false positives that were not actually because of AiWssI^ΔN activity. All fluorescence readings were normalized using the following equation to determine the percentage of quenching ([92]): NormalizedFlouresence=Fobs−μFmin/μFmax−μFminx100% In the aforementioned formula, Fobs is the sample fluorescence value, μFmin is the mean fluorescence value of the negative controls, and μFmax is the mean fluorescence value of the positive controls.
as §2

[4] = target: T1, AiWssI^ΔN; type: biochemical; conditions: 1 h incubation with reagent (1 mM PMSF, 5 mM MSF, 5 mM EDTA, 0.1 mM E-64, 20 μM Pepstatin A); 6 mM pNP-Ac, pH 7
Method: (§3) The enzymatic rate of the WssI^ΔN proteins was measured using chromogenic assays in a 50 mM sodium phosphate-buffered (pH 7) solution, with WssI^ΔN (3 μM unless specified otherwise) and were initiated by the addition of pNP-Ac to a final concentration of 6 mM (dissolved in 5% [v/v] ethanol). Assay samples and corresponding controls (i.e., containing no WssI^ΔN and/or substrate) were run in quadruplicate, and the progress of the reaction was monitored at 405 nm (Cytation5) for 30 min in 1 min intervals following a 5 s initial linear shake to mix contents thoroughly. These conditions were deemed standard assay conditions for subsequent trials except where modifications are noted. The activity assay to determine optimal pH and buffer type was performed with 2-(N-morpholino)ethanesulfonic acid over pH ranges of 5.5 to 6.5, sodium phosphate for pH 6.5 to 7.5, and Tris for the final range of 7.5 to 9.25. In addition, standard assay conditions were modified by incorporating various inhibitors and common reducing agents to determine effects on WssI^ΔN activity. […] To test the effects of the absence of DTT, trials were conducted where DTT was removed from all purification and dialysis buffers, unless mentioned otherwise. Data are either reported in specific activity as units of esterase activity (i.e., the amount of enzyme required to release 1 μmol of p-nitrophenol per min^−1 per mg of protein^−1) or as percent residual activity when compared with the WssI^ΔN controls (i.e., containing no inhibitors).

[5] = target: T2, PfWssI^ΔN (Pseudomonas fluorescens, UniProt Q8RSY4); type: biochemical; conditions: 1 h incubation with reagent (1 mM PMSF, 5 mM MSF, 5 mM EDTA, 0.1 mM E-64, 20 μM Pepstatin A); 6 mM pNP-Ac, pH 7
T2 sequence (Q8RSY4 92-374): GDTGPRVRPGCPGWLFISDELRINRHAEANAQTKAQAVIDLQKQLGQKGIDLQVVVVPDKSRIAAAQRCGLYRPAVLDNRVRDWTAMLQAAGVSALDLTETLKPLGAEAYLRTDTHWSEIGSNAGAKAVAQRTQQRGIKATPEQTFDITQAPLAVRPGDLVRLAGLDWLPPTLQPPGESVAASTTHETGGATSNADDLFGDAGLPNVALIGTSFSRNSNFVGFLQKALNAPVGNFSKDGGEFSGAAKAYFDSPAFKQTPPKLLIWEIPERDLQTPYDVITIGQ
Method: as §3

[6] = test system: CC(=O)Oc1ccc([N+](=O)[O-])cc1; assay: O-acetylesterase Michaelis-Menten kinetics; type: biochemical, Achromobacter insuavis; conditions: other: AiWssI^ΔN, acetyl donor substrate, pH 7
Method: as §3, §1
(§4) Kinetic assays were performed using the same standard assay conditions for esterase reactions outlined previously, but with acetyl donor pNP-Ac concentrations ranging from 0 to 10 mM and MU-Ac concentrations between 0 and 8 mM. Michaelis–Menten parameters, such as KM and kcat, were calculated from the kinetic curves according to a nonlinear regression analysis of plots of initial velocity as a function of pNP-Ac or MU-Ac concentration using GraphPad Prism, version 8.4.3 (GraphPad Sofware, Inc).

[7] = test system: CC(=O)Oc1ccc2c(C)cc(=O)oc2c1; assay: O-acetylesterase Michaelis-Menten kinetics; type: biochemical, Achromobacter insuavis; conditions: other: AiWssI^ΔN, acetyl donor substrate, pH 7
Method: as §3, §1, §4

[8] = substrate: CC(=O)Oc1ccc([N+](=O)[O-])cc1; assay: O-acetylesterase Michaelis-Menten kinetics; type: biochemical, Pseudomonas fluorescens; conditions: other: PfWssI^ΔN, acetyl donor substrate, pH 7
Method: as §3, §1, §4

[9] = substrate: CC(=O)Oc1ccc2c(C)cc(=O)oc2c1; assay: O-acetylesterase Michaelis-Menten kinetics; type: biochemical, Pseudomonas fluorescens; conditions: other: PfWssI^ΔN, acetyl donor substrate, pH 7
Method: as §3, §1, §4

T1 sequence (A0A6J5I893 entry or part of it, stated change not applied): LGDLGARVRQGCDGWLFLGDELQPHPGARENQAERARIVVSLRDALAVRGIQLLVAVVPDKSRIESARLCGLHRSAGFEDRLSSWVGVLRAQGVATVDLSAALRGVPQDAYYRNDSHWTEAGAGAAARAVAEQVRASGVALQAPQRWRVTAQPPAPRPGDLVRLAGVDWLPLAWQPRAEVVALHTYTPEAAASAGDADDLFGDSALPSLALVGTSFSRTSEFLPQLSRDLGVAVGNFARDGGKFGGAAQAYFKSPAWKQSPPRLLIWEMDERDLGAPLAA

For OC[C@H]1O[C@@H](O[C@H]2[C@H](O)[C@@H](O)[C@H](O[C@H]3[C@H](O)[C@@H](O)[C@H](O[C@H]4[C@H](O)[C@@H](O)[C@H](O[C@H]5[C@H](O)[C@@H](O)C(O)O[C@@H]5CO)O[C@@H]4CO)O[C@@H]3CO)O[C@@H]2CO)[C@H](O)[C@@H](O)[C@@H]1O (some centres unmarked) [cellopentaose], which “Increase in AiWssI^ΔN activity versus reaction without celloacceptors” value [1] is on record?
The value was 28%.

What about the “Specific activity of AiWssI^ΔN with acceptor relative to no acceptor control” value [1] of the same molecule?
Its value is “Significant increases in activity”.

Which “Specific activity of AiWssI^ΔN with acceptor relative to no acceptor control” value [1] does the source give for OC[C@H]1O[C@@H](O[C@H]2[C@H](O)[C@@H](O)[C@H](O[C@H]3[C@H](O)[C@@H](O)C(O)O[C@@H]3CO)O[C@@H]2CO)[C@H](O)[C@@H](O)[C@@H]1O (some centres unmarked) [cellotriose] here?
The value was “Significant increases in activity”.

Which results are given for Cn1cccc1/C=C(/C#N)c1nnc(-c2ccccc2)n1C [Compound 3, (2Z)-3-(1-Methyl-1H-pyrrol-2-yl)-2-(4-methyl-5-phenyl-4H-1,2,4-triazol-3-yl)-prop-2-enenitrile]?
IC50 [2]: 41.4 µM; Ki [2]: 22.1 µM; IC50 [3]: 85.3 µM

How did the “Residual activity AiWssI^ΔN” value [4] turn out when O=S(=O)(F)Cc1ccccc1 [PMSF] was run?
The value was 106.3 ± 6.8%.

What about the “Residual activity PfWssI^ΔN” value [5] of the same molecule?
Its value is 103.2 ± 4.2%.

What does the source list for CCOC(=O)NC(=O)/C(C#N)=C/c1ccc(N(C)C)cc1 [Compound 2, Ethyl N-[(2E)-2-cyano-2-{[4-(dimethylamino)-phenyl]methylidene}acetyl]carbamate]?
IC50 [2]: 22.6 µM; Ki [2]: 12 µM; IC50 [3]: 60.2 µM

Which IC50 [3] does the source give for CN1/C(=C/C(=O)Cn2cc(S(=O)(=O)N3CCCC3)ccc2=O)C(C)(C)c2ccccc21 [Compound 6, 1-{2-Oxo-3-[(2E)-1,3,3-trimethyl-2,3-dihydro-1H-indol-2-ylidene]propyl}-5-(pyrrolidine-1-sulfonyl)-1,2-dihydropyridin-2-one] here?
Its IC50 is 71.9 µM.

Which results are given for OC[C@H]1O[C@@H](O[C@H]2[C@H](O)[C@@H](O)[C@H](O[C@H]3[C@H](O)[C@@H](O)[C@H](O[C@H]4[C@H](O)[C@@H](O)[C@H](O[C@H]5[C@H](O)[C@@H](O)[C@H](O[C@H]6[C@H](O)[C@@H](O)C(O)O[C@@H]6CO)O[C@@H]5CO)O[C@@H]4CO)O[C@@H]3CO)O[C@@H]2CO)[C@H](O)[C@@H](O)[C@@H]1O (some centres unmarked) [cellohexaose]?
Increase in AiWssI^ΔN activity versus reaction without celloacceptors [1]: 31%; Specific activity of AiWssI^ΔN with acceptor relative to no acceptor control [1]: Significant increases in activity

For CC(=O)Nc1ccc(S(=O)(=O)Nc2ccc([N+](=O)[O-])cc2)cc1 [Compound 7, N-{4-[(4-Nitrophenyl)sulfamoyl]phenyl}acetamide], which IC50 [3] is on record?
The IC50 was 100 µM.

How did the “Specific activity of AiWssI^ΔN with acceptor relative to no acceptor control” value [1] turn out when OC[C@H]1O[C@@H](O[C@H]2[C@H](O)[C@@H](O)[C@H](O[C@H]3[C@H](O)[C@@H](O)[C@H](O[C@H]4[C@H](O)[C@@H](O)C(O)O[C@@H]4CO)O[C@@H]3CO)O[C@@H]2CO)[C@H](O)[C@@H](O)[C@@H]1O (some centres unmarked) [cellotetraose] was run?
Its value is “Significant increases in activity”.

With O=C1NC(=O)c2ccccc2/C1=C\C=Cc1ccco1 [Compound 5, (4E)-4-[3-(Furan-2-yl)prop-2-en-1-ylidene]-1,2,3,4-tetrahydroisoquino-line-1,3-dione] as the molecule, how does the IC50 [3] read?
Its IC50 is 51.9 µM.

For O=C[C@H](O)[C@@H](O)[C@H](O[C@@H]1O[C@H](CO)[C@@H](O)[C@H](O)[C@H]1O)[C@H](O)CO [cellobiose], which “Specific activity of AiWssI^ΔN with acceptor relative to no acceptor control” value [1] is on record?
Its value is “Significant increases in activity”.

How did the IC50 [3] turn out when Cc1nc(N2CCCCC2)sc1/C=N/Nc1ccc(C(=O)O)cc1 [Compound 8, 4-[(2E)-2-{[4-Methyl-2-(piperidin-1-yl)-1,3-thiazol-5-yl]methylidene}hydrazin-1-yl]benzoic acid] was run?
Its IC50 is 90.3 µM.

How did the Km [6] turn out when AiWssI^ΔN (Achromobacter insuavis) was run?
Its Km is 3850 ± 1070 µM.

And the kcat [6]?
The kcat was 0.031 ± 0.0035 s⁻¹.

And the kcat/Km [6]?
Its kcat/Km is 8 M⁻¹ s⁻¹.

What about the Km [7] of the same molecule?
Its Km is 570 ± 240 µM.

What about the kcat [7] of the same molecule?
Its kcat is 0.00258 ± 0.00028 s⁻¹.

And the kcat/Km [7]?
The kcat/Km was 4.5 M⁻¹ s⁻¹.

Which IC50 [3] does the source give for CN1CCN(c2ccc(NC(=O)c3cc4sc(Nc5ccccc5)nc4s3)cn2)CC1 [Compound 4, N-[6-(4-Methylpiperazin-1-yl)pyridin-3-yl]-2-(phenylamino)thieno[2,3-days][1,3]thiazole-5-carboxamide] here?
The IC50 was 55.3 µM.

B1: PfWssI^ΔN (Pseudomonas fluorescens) (protein)
chain: T2 sequence (Q8RSY4 92-374)
For B1, which Km [8] is on record?
The Km was 2410 ± 770 µM.

What about the kcat [8] of the same molecule?
Its kcat is 0.0312 ± 0.0034 s⁻¹.

And the kcat/Km [8]?
Its kcat/Km is 13 M⁻¹ s⁻¹.

What about the Km [9] of the same molecule?
The Km was 340 ± 100 µM.

And the kcat [9]?
Its kcat is 0.00162 ± 0.00016 s⁻¹.

And the kcat/Km [9]?
The kcat/Km was 4.8 M⁻¹ s⁻¹.
